# Laboratory results reported in patent publication US8044028B2, “Oligopeptides and their use in cosmetics” (Cognis France S.A.S., priority 2004, dated 2011).
# No end group written: not given here. *: point of attachment. Palmitoyl = CCCCCCCCCCCCCCCC(=O)*
# B1: KGF: KGF (Keratinocyte Growth Factor) (positive control), obtained from SIGMA (protein, UniProt P21781 32-194, looked up)
# Fibroblast growth factor 7: CNDMTPEQMATNVNCSSPERHTRSYDYMEGGDIRVRRLFCRTQWYLRIDKRGKVKGTQEMKNNYNIMEIRTVAVGIVAIKGVESEFYLAMNKEGKLYAKKECNEDCNFKELILENHYNTYASAKWTHNGGEMFVALNQKGIPVRGKKTKKEQKTAHFLPMAIT
# Key:
# human keratinocytes = assay: Effects on the growth of human primary keratinocytes (cellular DNA content, ethidium bromide fluorescence); assay type: cell-based; settings: for DNA after culture for 4-5 days: % based on control (standard medium without additives = 100), average of 3 assays in triplicate; for growth of human keratinocytes (result in words): keratinocytes cultivated from biopsies of adult subjects, activity still detected after 5 days without changing medium; for DNA after culture for 3 days: % based on control = 100
# Method: The aim of this test was to analyse the revitalizing and regenerating activities of oligpopeptides according to the invention on human keratinocyte cultures in vitro.
# Human keratinocytes were obtained by trypsinization of skin biopsies. They were incubated in standard medium for cell cultures with foetal calf serum (FCS) and growth factors (EGF 10 ng/ml). After cultivation for 2 days at 37° C. and a CO2 content of 5%, the medium was replaced by standard medium with varying concentrations of peptides. […] The fluorescence was determined using a fluorimeter (excitation at 538 nm and emission at 590 nm). The foetal calf serum forms a positive control because it comprises many growth factors, such as, for example, IGF (insulin-like growth factor) and PDGF (platelet derived growth factor).
# The results are shown in Table 1 and 2 as the average value from 3 assays in triplicate in % based on a control in which the standard medium comprised no additives.
# syndecan-1 = assay: Stimulation of the synthesis of syndecan-1 on human keratinocytes (immunocytochemistry, image analysis); assay type: cell-based; settings: keratinocyte culture, biopsies of adult subjects
# Method: Monoclonal antibody anti-syndecan-1 and secondary antibody FITC conjugated were obtained from TEBU, Le Perray en Yvelines and BIO-RAD, Marnes-la-Coquette; KGF (Keratinocyte Growth Factor) (positive control) was obtained from SIGMA, L′Isle d'Abeau Chesnes.
# Human keratinocytes were seeded in DMEM standard medium for 2 days at 37° C., CO2=5%. Then, N-Acetyl-Pro-Pro-Tyr-Leu (Seq. ID No. 375) or positive control KGF are introduced and after 5 days of incubation at 37° C., CO2=5%, the synthesis of syndecan-1 was evaluated on glass slides by immunocytochemistry. Quantification of the staining was carried out by image analysis.
# The results are shown in table 3 as the mean of the sum±SEM of the product of number of pixels by green detected values (arbitrary unit).
Molecule,DNA after culture for 4-5 days (human keratinocytes; 0.001 % (w/v) peptide),DNA after culture for 4-5 days (human keratinocytes; 0.003 % (w/v) peptide),growth of human keratinocytes (result in words) (human keratinocytes),DNA after culture for 3 days (human keratinocytes; 0.00005 % (w/v) peptide),DNA after culture for 3 days (human keratinocytes; 0.00015 % (w/v) peptide),syndecan-1 expression / synthesis in human keratinocytes (result in words) (syndecan-1)
"Arg-Arg-Arg-Pro-Arg (RRRPR; peptide derived from cathelicidin PR-39) [Example 2, R1=H, R2=OH]",119 +/− 6%,126 +/− 8%,stimulate the growth of human keratinocytes,,,
"Pro-Tyr-Leu-Pro-Arg (PYLPR; peptide derived from cathelicidin PR-39) [Example 5, R1=H, R2=OH]",118 +/− 3%,112 +/− 5%,stimulate the growth of human keratinocytes,,,
"N-Palmitoyl-Pro-Pro-Tyr-Leu (Palmitoyl-PPYL) [Example 7, [AA] is Pro-Pro-Tyr-Leu, R1 is Palmitoyl and R2 is OH]",,,,136 +/− 13%,135 +/− 8%,
"Pro-Pro-Tyr-Leu (PPYL; peptide derived from cathelicidin PR-39) [Example 4, R1=H, R2=OH]",150 +/− 26%,166 +/− 7%,stimulate the growth of human keratinocytes,,,
Tyr-Leu-Pro-Arg-Pro [Example 6],110 +/− 6%,146 +/− 24%,stimulate the growth of human keratinocytes,,,
"N-Acetyl-Pro-Pro-Tyr-Leu (Ac-PPYL) [[AA] is Pro-Pro-Tyr-Leu, R1 is Acetyl, and R2 is OH]",,,,,,stimulates the synthesis of syndecan-1
RRRPRPPYLPRPRPP [Example 1],124 +/− 15%,131 +/− 11%,stimulate the growth of human keratinocytes,,,
"Arg-Pro-Pro-Tyr-Leu (RPPYL; peptide derived from cathelicidin PR-39) [Example 3, R1=H, R2=OH]",97 +/− 1%,118 +/− 10%,stimulate the growth of human keratinocytes,,,
B1,,,,,,induced an increase of syndecan-1 expression
